Activity calls are given as the source filed them. The rule behind the calls is not given here.
Tests used:
CAKI-1 [1] = assay: Anticancer activity against human CAKI-1 cells assessed as total growth inhibition incubated for 48 hrs by SRB assay; type: functional
NCI/ADR-RES = assay: Anticancer activity against human NCI/ADR-RES cells assessed as total growth inhibition incubated for 48 hrs by SRB assay; type: functional
CAKI-1 [2] = assay: Anticancer activity against human CAKI-1 cells assessed as lethality incubated for 48 hrs by SRB assay; type: functional; conditions: read-out: LC50 (the source's name)
NCI-H322M = assay: Anticancer activity against human NCI-H322M cells assessed as growth inhibition incubated for 48 hrs by SRB assay; type: functional
TK-10 = assay: Anticancer activity against human TK-10 cells assessed as growth inhibition incubated for 48 hrs by SRB assay; type: functional
SK-OV-3 [3] = assay: Anticancer activity against human SK-OV-3 cells assessed as lethality incubated for 48 hrs by SRB assay; type: functional; conditions: read-out: LC50 (the source's name)
SK-OV-3 [4] = assay: Anticancer activity against human SK-OV-3 cells assessed as growth inhibition incubated for 48 hrs by SRB assay; type: functional
KM12 = assay: Anticancer activity against human KM12 cells assessed as growth inhibition incubated for 48 hrs by SRB assay; type: functional
[5] = Selectivity index, ratio of GI50 for human HaCaT cells to GI50 for human U-251 cells; type: toxicity; conditions: HaCaT cells versus U-251 cells, read-out: RatioGI50
HT-29 = assay: Anticancer activity against human HT-29 cells assessed as lethality incubated for 48 hrs by SRB assay; type: functional; conditions: read-out: LC50 (the source's name)
DU-145 = assay: Anticancer activity against human DU-145 cells assessed as lethality incubated for 48 hrs by SRB assay; type: functional; conditions: read-out: LC50 (the source's name)
A549 [6] = assay: Anticancer activity against human A549 cells assessed as cell growth inhibition incubated for 72 hrs by MTT assay; type: functional
SF-539 [7] = assay: Anticancer activity against human SF-539 cells assessed as lethality incubated for 48 hrs by SRB assay; type: functional; conditions: read-out: LC50 (the source's name)
A549 [8] = assay: Anticancer activity against human A549 cells assessed as total growth inhibition incubated for 48 hrs by SRB assay; type: functional
Jurkat [9] = assay: Anticancer activity against human Jurkat cells assessed as cell growth inhibition incubated for 72 hrs by MTT assay; type: functional
IGROV-1 = assay: Anticancer activity against human IGROV-1 cells assessed as lethality incubated for 48 hrs by SRB assay; type: functional; conditions: read-out: LC50 (the source's name)
MCF7 [10] = assay: Anticancer activity against human MCF7 cells assessed as cell growth inhibition incubated for 72 hrs by MTT assay; type: functional
HCC 2998 = assay: Anticancer activity against human HCC 2998 cells assessed as total growth inhibition incubated for 48 hrs by SRB assay; type: functional
ACHN = assay: Anticancer activity against human ACHN cells assessed as growth inhibition incubated for 48 hrs by SRB assay; type: functional
RPMI-8226 = assay: Anticancer activity against human RPMI-8226 cells assessed as total growth inhibition incubated for 48 hrs by SRB assay; type: functional
MDA-MB-231 = assay: Anticancer activity against human MDA-MB-231 cells assessed as growth inhibition incubated for 48 hrs by SRB assay; type: functional
SK-MEL-2 = assay: Anticancer activity against human SK-MEL-2 cells assessed as total growth inhibition incubated for 48 hrs by SRB assay; type: functional
OVCAR-4 = assay: Anticancer activity against human OVCAR-4 cells assessed as growth inhibition incubated for 48 hrs by SRB assay; type: functional
EKVX = assay: Anticancer activity against human EKVX cells assessed as lethality incubated for 48 hrs by SRB assay; type: functional; conditions: read-out: LC50 (the source's name)
HOP-92 = assay: Anticancer activity against human HOP-92 cells assessed as lethality incubated for 48 hrs by SRB assay; type: functional; conditions: read-out: LC50 (the source's name)
HCT-116 = assay: Anticancer activity against human HCT-116 cells assessed as lethality incubated for 48 hrs by SRB assay; type: functional; conditions: read-out: LC50 (the source's name)
OVCAR-8 [11] = assay: Anticancer activity against human OVCAR-8 cells assessed as total growth inhibition incubated for 48 hrs by SRB assay; type: functional
U-251 [12] = assay: Anticancer activity against human U-251 cells assessed as growth inhibition incubated for 48 hrs by SRB assay; type: functional
SF-539 [13] = assay: Anticancer activity against human SF-539 cells assessed as total growth inhibition incubated for 48 hrs by SRB assay; type: functional
MDA-MB-435 = assay: Anticancer activity against human MDA-MB-435 cells assessed as lethality incubated for 48 hrs by SRB assay; type: functional; conditions: read-out: LC50 (the source's name)
Jurkat [14] = assay: Induction of morphological changes in human Jurkat cells assessed as chromatin topology incubated for 24 hrs by Hoechst 33258 and propidium iodide staining based fluorescence microscopy; type: functional, cell-based
786-0 = assay: Anticancer activity against human 786-0 cells assessed as total growth inhibition incubated for 48 hrs by SRB assay; type: functional
UACC-257 [15] = assay: Anticancer activity against human UACC-257 cells assessed as total growth inhibition incubated for 48 hrs by SRB assay; type: functional
U-251 [16] = assay: Anticancer activity against human U-251 cells assessed as lethality incubated for 48 hrs by SRB assay; type: functional; conditions: read-out: LC50 (the source's name)
HOP-62 = assay: Anticancer activity against human HOP-62 cells assessed as growth inhibition incubated for 48 hrs by SRB assay; type: functional
OVCAR-8 [17] = assay: Anticancer activity against human OVCAR-8 cells assessed as lethality incubated for 48 hrs by SRB assay; type: functional; conditions: read-out: LC50 (the source's name)
NCI-H226 = assay: Anticancer activity against human NCI-H226 cells assessed as lethality incubated for 48 hrs by SRB assay; type: functional; conditions: read-out: LC50 (the source's name)
[18] = Selectivity index, ratio of GI50 for human HaCaT cells to GI50 for human A549 cells; type: toxicity; conditions: HaCaT cells versus A549 cells, read-out: RatioGI50
MOLT-4 = assay: Anticancer activity against human MOLT-4 cells assessed as growth inhibition incubated for 48 hrs by SRB assay; type: functional
NCI-H522 = assay: Anticancer activity against human NCI-H522 cells assessed as lethality incubated for 48 hrs by SRB assay; type: functional; conditions: read-out: LC50 (the source's name)
Jurkat [19] = assay: Induction of morphological changes in human Jurkat cells assessed as plasma membrane blebbing incubated for 24 hrs by Hoechst 33258 and propidium iodide staining based fluorescence microscopy; type: functional, cell-based
UACC-257 [20] = assay: Anticancer activity against human UACC-257 cells assessed as lethality incubated for 48 hrs by SRB assay; type: functional; conditions: read-out: LC50 (the source's name)
SF-295 = assay: Anticancer activity against human SF-295 cells assessed as total growth inhibition incubated for 48 hrs by SRB assay; type: functional
Malme-3M = assay: Anticancer activity against human Malme-3M cells assessed as total growth inhibition incubated for 48 hrs by SRB assay; type: functional
[21] = Selectivity index, ratio of GI50 for human HaCaT cells to GI50 for human SK-OV-3 cells; type: toxicity; conditions: HaCaT cells versus SK-OV-3 cells, read-out: RatioGI50
PC-3 = assay: Anticancer activity against human PC-3 cells assessed as growth inhibition incubated for 48 hrs by SRB assay; type: functional
MDA-MB-468 = assay: Anticancer activity against human MDA-MB-468 cells assessed as total growth inhibition incubated for 48 hrs by SRB assay; type: functional
SK-OV-3 [22] = assay: Anticancer activity against human SK-OV-3 cells assessed as total growth inhibition incubated for 48 hrs by SRB assay; type: functional
MCF7 [23] = assay: Anticancer activity against human MCF7 cells assessed as total growth inhibition incubated for 48 hrs by SRB assay; type: functional

O=C1CC(N2C(=O)/C(=C/C(Cl)=C/c3ccc([N+](=O)[O-])cc3)SC2=S)C(=O)N1c1ccc(O)cc1 (stereo not drawn) showed a TGI (CAKI-1 [1]) of 2.42 µM, a TGI (NCI/ADR-RES) of 12.1 µM and a CC50 (CAKI-1 [2]) of 5.12 µM. For the same molecule, the GI50 (NCI-H322M) was 2.34 µM, the GI50 (TK-10) was 1.92 µM and the CC50 (SK-OV-3 [3]) was 32 µM. It also gave a GI50 (SK-OV-3 [4]) of 2.99 µM, a GI50 (KM12) of 1.83 µM and a selectivity ratio [5] of 66.9. It also gave a CC50 (HT-29) of over 100 µM, a CC50 (DU-145) of 6.62 µM and a GI50 (A549 [6]) of 7.25 µM. For the same molecule, the CC50 (SF-539 [7]) was 8.43 µM, the TGI (A549 [8]) was 11.4 µM and the GI50 (Jurkat [9]) was 1.3 µM. The CC50 (IGROV-1) was 5.98 µM, the GI50 (MCF7 [10]) was 4 µM and the TGI (HCC 2998) was 2.92 µM. It also gave a GI50 (ACHN) of 1.36 µM, a TGI (RPMI-8226) of 4.36 µM and a GI50 (MDA-MB-231) of 2.14 µM. It also gave a TGI (SK-MEL-2) of 7.83 µM, a GI50 (OVCAR-4) of 5.13 µM and a CC50 (EKVX) of 35.3 µM. It also gave a CC50 (HOP-92) of 8.54 µM, a CC50 (HCT-116) of 5.22 µM and a TGI (OVCAR-8 [11]) of 14.2 µM. For the same molecule, the GI50 (U-251 [12]) was 0.597 µM, the TGI (SF-539 [13]) was 3.81 µM and the CC50 (MDA-MB-435) was 9.37 µM. The Activity (Jurkat [14]) was “Active”, the TGI (786-0) was 4.8 µM and the TGI (UACC-257 [15]) was 9.12 µM. For the same molecule, the CC50 (U-251 [16]) was 6.53 µM, the GI50 (HOP-62) was 2.26 µM and the CC50 (OVCAR-8 [17]) was over 100 µM. The CC50 (NCI-H226) was 50.3 µM, the selectivity ratio [18] was 10.2 and the GI50 (MOLT-4) was 0.534 µM. For the same molecule, the CC50 (NCI-H522) was 9.65 µM, the Activity (Jurkat [19]) was “Active” and the CC50 (UACC-257 [20]) was 44.2 µM. It also gave a TGI (SF-295) of 2.7 µM, a TGI (Malme-3M) of 5.79 µM and a selectivity ratio [21] of 0.74. For the same molecule, the GI50 (PC-3) was 0.906 µM, the TGI (MDA-MB-468) was 5.7 µM and the TGI (SK-OV-3 [22]) was 9.26 µM. It also gave a TGI (MCF7 [23]) of 10.7 µM.
In the case of O=C1CC(N2C(=O)/C(=C/C(Cl)=C/c3ccc([N+](=O)[O-])cc3)SC2=S)C(=O)N1c1ccc(Cl)cc1 (stereo not drawn), the TGI (CAKI-1 [1]) was 3.28 µM, the TGI (NCI/ADR-RES) was 6.19 µM and the CC50 (CAKI-1 [2]) was 9.52 µM. It also gave a GI50 (NCI-H322M) of 3 µM, a GI50 (TK-10) of 2.79 µM and a CC50 (SK-OV-3 [3]) of over 100 µM. It also gave a GI50 (SK-OV-3 [4]) of 3.56 µM, a GI50 (KM12) of 1.96 µM and a selectivity ratio [5] of 11.2. It also gave a CC50 (HT-29) of over 100 µM, a CC50 (DU-145) of over 100 µM and a GI50 (A549 [6]) of 63.9 µM. For the same molecule, the CC50 (SF-539 [7]) was over 100 µM, the TGI (A549 [8]) was over 100 µM and the GI50 (Jurkat [9]) was 3.4 µM. It also gave a CC50 (IGROV-1) of 49.6 µM, a GI50 (MCF7 [10]) of 7.95 µM and a TGI (HCC 2998) of 3.03 µM. The GI50 (ACHN) was 1.34 µM, the TGI (RPMI-8226) was 0.979 µM and the GI50 (MDA-MB-231) was 3.75 µM. The TGI (SK-MEL-2) was 32.1 µM, the GI50 (OVCAR-4) was 5.55 µM and the CC50 (EKVX) was over 100 µM. It also gave a CC50 (HOP-92) of over 100 µM, a CC50 (HCT-116) of 6.85 µM and a TGI (OVCAR-8 [11]) of over 100 µM. It also gave a GI50 (U-251 [12]) of 0.477 µM, a TGI (SF-539 [13]) of 4.14 µM and a CC50 (MDA-MB-435) of 6.98 µM. The Activity (Jurkat [14]) was “Active”, the TGI (786-0) was 3.33 µM and the TGI (UACC-257 [15]) was 66.5 µM. For the same molecule, the CC50 (U-251 [16]) was 14.1 µM, the GI50 (HOP-62) was 1.73 µM and the CC50 (OVCAR-8 [17]) was over 100 µM. It also gave a CC50 (NCI-H226) of over 100 µM, a selectivity ratio [18] of 1.56 and a GI50 (MOLT-4) of 0.596 µM. The CC50 (NCI-H522) was 14.1 µM, the Activity (Jurkat [19]) was “Active” and the CC50 (UACC-257 [20]) was over 100 µM. It also gave a TGI (SF-295) of 3.24 µM, a TGI (Malme-3M) of 11.6 µM and a selectivity ratio [21] of 1.52. It also gave a GI50 (PC-3) of 1.34 µM, a TGI (MDA-MB-468) of 3.1 µM and a TGI (SK-OV-3 [22]) of over 100 µM. The TGI (MCF7 [23]) was over 100 µM.

— ChEMBL document CHEMBL5113392, “Novel hybrid pyrrolidinedione-thiazolidinones as potential anticancer agents: Synthesis and biological evaluation” (Eur J Med Chem, 2022)
